Experimental data: patent US7531545B2, “2-amino-3,4-dihydro-pyrido[3,4-d]pyrimidine derivatives useful as inhibitors of β-secretase (BACE)” (Janssen Pharmaceutica, N.V., priority 2005, dated 2009)

Target: human BACE-1 (Homo sapiens, UniProt P56817)
Test: CEREP BACE Inhibition Assay
Assay type: biochemical
Settings: recombinant enzyme; for inhibition at 1 µM / % Inhibition @ 1.0 μM: percent inhibition of the control activity; for inhibition at 1 µM: read-out: % Inhibition @ 1.0 μM; for IC50: read-out: IC50
Procedure: More specifically the assay, run at 50 μL in a 96 well plate, evaluated the effect of test compound on the activity of the human BACE-1 quantified by measuring the formation of Mca-S-E-V-N-L-NH2 from […], using a recombinant enzyme. The test compound, reference compound or water (control) were added to a buffer containing 0.09 M sodium acetate (pH 4.5) and 0.25 μg BACE-1. Compound interference with the fluorimetric detection method due to autofluorescence was then checked by measurements at the wavelengths defined to evaluate the enzyme activity. […] For control basal measurement, the substrate was omitted from the reaction mixture. […] The standard inhibitory reference compound was OM99-2, which was tested in each experiment at several concentrations to obtain an inhibition curve from which its IC50 value was calculated.

Chain of human BACE-1 (P56817 46-501): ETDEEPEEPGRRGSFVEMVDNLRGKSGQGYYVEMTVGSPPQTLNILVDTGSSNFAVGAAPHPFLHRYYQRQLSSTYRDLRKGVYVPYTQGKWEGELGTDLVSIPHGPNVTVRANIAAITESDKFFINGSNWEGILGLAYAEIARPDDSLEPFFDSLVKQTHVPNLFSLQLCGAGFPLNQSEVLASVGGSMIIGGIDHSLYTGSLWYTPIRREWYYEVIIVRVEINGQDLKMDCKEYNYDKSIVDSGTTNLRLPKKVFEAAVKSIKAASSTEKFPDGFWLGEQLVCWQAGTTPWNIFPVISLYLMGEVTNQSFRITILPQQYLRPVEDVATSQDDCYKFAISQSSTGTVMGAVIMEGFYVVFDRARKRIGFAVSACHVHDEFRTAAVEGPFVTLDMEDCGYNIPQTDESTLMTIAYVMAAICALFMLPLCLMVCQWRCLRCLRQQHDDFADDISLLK

inhibition at 1 µM [%]	IC50 [µM]	% Inhibition @ 1.0 μM [%]	Compound
65	1.2	–	NC1=Nc2cnc(Oc3ccccc3)cc2CN1[C@@H](CCC(=O)N1CCC[C@H]1CO)C1CCCCC1 [Compound 143]
81	0.82	–	NC1=Nc2cnc(Oc3ccccc3)cc2CN1[C@@H](CCC(=O)N1CCC[C@@H]1CO)C1CCCCC1 [Compound 144]
99	0.057	–	CC(C)(C)CCN(CCNC(=O)OC(C)(C)C)C(=O)CC[C@@H](C1CCCCC1)N1Cc2cc(Oc3ccccc3)ncc2N=C1N [Compound 145]
100	0.072	–	CC(C)(C)CCN(CCN)C(=O)CC[C@@H](C1CCCCC1)N1Cc2cc(Oc3ccccc3)ncc2N=C1N [Compound 146]
100	0.18	–	CC(C)(C)CCN(CCNS(N)(=O)=O)C(=O)CC[C@@H](C1CCCCC1)N1Cc2cc(Oc3ccccc3)ncc2N=C1N [Compound 147, 4-(2-Amino-6-phenoxy-4H-pyrido[3,4-d]pyrimidin-3-yl)-4-(S)-cyclohexyl-N-(3,3-dimethyl-butyl)-N-(2-sulfamido-ethyl)-butyramide]
66	0.74	–	NC1=Nc2cnc(Oc3ccccc3)cc2CN1[C@@H](CCC(=O)N1CCC(c2ccccc2)CC1)C1CCCCC1 [Compound 149]
95	0.17	–	CC(C)(C)OC(=O)N1CCC(NC(=O)CC[C@@H](C2CCCCC2)N2Cc3cc(Oc4ccccc4)ncc3N=C2N)CC1 [Compound 150]
98	0.15	–	NC1=Nc2cnc(Oc3ccccc3)cc2CN1[C@@H](Cn1cc(C2CCCCC2)nn1)C1CCCCC1 [Compound 151]
99	0.088	–	CC(C)(C)c1cn(C[C@@H](C2CCCCC2)N2Cc3cc(Oc4ccccc4)ncc3N=C2N)nn1 [Compound 152, 3-[2-(4-tert-Butyl-[1,2,3]triazol-1-yl)-1-(R)-cyclohexyl-ethyl]-6-phenoxy-3,4-dihydro-pyrido[3,4-d]pyrimidin-2-ylamine]
102	0.11	–	CC(C)(C)OCCN(Cc1cccs1)C(=O)CC[C@@H](C1CCCCC1)N1Cc2cc(Oc3ccccc3)ncc2N=C1N [Compound 154]
100	0.084	–	CC(C)(C)OCCN(Cc1ccccn1)C(=O)CC[C@@H](C1CCCCC1)N1Cc2cc(Oc3ccccc3)ncc2N=C1N [Compound 155]
102	0.1	–	CC(C)(C)OCCN(Cc1ccsc1)C(=O)CC[C@@H](C1CCCCC1)N1Cc2cc(Oc3ccccc3)ncc2N=C1N [Compound 156]
102	0.13	–	CC(C)(C)OCCN(Cc1ccc(F)cc1)C(=O)CC[C@@H](C1CCCCC1)N1Cc2cc(Oc3ccccc3)ncc2N=C1N [Compound 158]
102	0.11	–	CC(C)(C)OCCN(Cc1cncs1)C(=O)CC[C@@H](C1CCCCC1)N1Cc2cc(Oc3ccccc3)ncc2N=C1N [Compound 159]
–	0.066	101	CC(C)(C)CNC(=O)CC[C@@H](C1CCCCC1)N1Cc2cc(Oc3ccccc3)ncc2N=C1N [Compound 160]
94	0.2	–	CC(C)(C)CNCCC[C@@H](C1CCCCC1)N1Cc2cc(Oc3ccccc3)ncc2N=C1N [Compound 161]
–	0.09	99	CC(C)(C)OCCN(Cc1ccccn1)C(=O)CC[C@@H](C1CCCCC1)N1Cc2cc(Oc3ccccc3)ncc2N=C1N [Compound 162]
85	0.2	–	NC1=Nc2cnc(Oc3ccccc3)cc2CN1[C@@H](CCC(=O)N1CCOCC1)C1CCCCC1 [Compound 166]

Compound	inhibition at 1 µM [%]	IC50 [µM]	% Inhibition @ 1.0 μM [%]
CC(C)(C)OC[C@H](CN)NCCC[C@@H](C1CCCCC1)N1Cc2cc(Oc3ccccc3)ncc2N=C1N [Compound 167, N^2-[4-(2-Amino-6-phenoxy-4H-pyrido[3,4-d]pyrimidin-3-yl)-4-cyclohexyl-butyl]-3-tert-butoxy-propane-1,2-diamine]	82	0.52	–
